This is an account of results in ChEMBL document CHEMBL3301472, “MMV Malaria Box HIV and cytotoxicity screening”.

Holding throughout (assay type): toxicity, cell-based
Data set [1] is described as follows: MMV: MTT Cytotoxicity Assay Day 3 pi, U87-CD4-CCR5 cells, % cell death @ 5mM compound. The following applies: human, u87-cd4-ccr5, 5000 µM.
Data set [2] can be described thus: MMV: MTT Cytotoxicity Assay Day 3 pi, U87-CD4-CXCR4 cells, % cell death @ 5mM compound. The following applies: human, u87-cd4-cxcr4, 5000 µM.
Data set [3] is described as follows: MMV: MTT Cytotoxicity Assay Day 7 pi of Assay #6 (compound washed out Day 1 pi), U87-CD4-CCR5 cells, % cell death @ 5mM compound. The following applies: human, u87-cd4-ccr5, 5000 µM.
Data set [4] in a line: MMV: MTT Cytotoxicity Assay Day 7 pi of Assay #7 (compound washed out Day 1 pi), U87-CD4-CXCR4 cells, % cell death @ 5mM compound. The following applies: human, u87-cd4-cxcr4, 5000 µM.
Data set [5] in a line: MMV: MTT Cytotoxicity Assay Day 7 pi of Assay #10 (NO washout), U87-CD4-CCR5 cells, % cell death @ 5mM compound. The following applies: human, u87-cd4-ccr5, 5000 µM.
Data set [6] can be described thus: MMV: MTT Cytotoxicity Assay Day 7 pi of Assay #11 (NO washout), U87-CD4-CXCR4 cells, % cell death @ 5mM compound. The following applies: human, u87-cd4-cxcr4, 5000 µM.

Turning to `O=C(Nc1ccc(-c2nc3cc4ccccc4cc3[nH]2)cc1)c1cccc(Br)c1`, the “% Cell Death” value in data set [1] is 16; in data set [2] it was 42; in data set [3], 13; in data set [4], -24; in data set [5], 7; in data set [6], -33.

`CCCCNc1nc(NC(C)(C)C)nc(NC(C)(C)C)n1`: the “% Cell Death” value in data set [1] is on record as -21; in data set [2] it was 61; in data set [3] it was 2; in data set [4] it was 18; in data set [5], -7; in data set [6], -2.

As for `O=C(Nc1ccc(Cl)cc1C(=O)Nc1ccncc1)c1ccc(Cl)cc1Cl`, the “% Cell Death” value in data set [1] is reported as 0; in data set [2], 21; in data set [3] it was 50; in data set [4] it was 75; in data set [5], 15; in data set [6], 87.

Consider `COc1ccc(C2c3ccc4ccccc4c3Oc3ncn(CCCN(C)C)c(=N)c32)cc1` (stereo not given), for which the “% Cell Death” value in data set [1] is listed as 15; in data set [2], 39; in data set [3] it was -31; in data set [4], -12; in data set [5], -3; in data set [6], -61.

With `CCN(CC)CCNc1ncnc2c1[nH]c1ccc(Cl)cc12`, the “% Cell Death” value in data set [1] is recorded as 15; in data set [2], 30; in data set [3], 1; in data set [4], -31; in data set [5], 5; in data set [6], -1.

As to `O=c1nc(C=Cc2ccc(Br)cc2)oc2ccccc12`, the “% Cell Death” value in data set [1] is 17; in data set [2], 23; in data set [3], -7; in data set [4], 24; in data set [5], 35; in data set [6], -17.

For the molecule `c1ccc2cc3c(Nc4ccc(N5CCOCC5)cc4)ccnc3cc2c1`, the “% Cell Death” value in data set [1] came out at 91; in data set [2], 97; in data set [3], 99; in data set [4], 98; in data set [5] it was 106; in data set [6], 108.

Consider `Cc1c(C)n(Cc2ccc(F)cc2)c2ccc(C(=O)NCc3ccco3)cc12`, for which the “% Cell Death” value in data set [1] was 106; in data set [2], 95; in data set [3], 78; in data set [4] it was 18; in data set [5], 146; in data set [6], 103.

With `O=C(Nc1ccc(Cl)c(Cl)c1)Nc1ccc(Cl)c(Cl)c1`, the “% Cell Death” value in data set [1] was 82; in data set [2], 59; in data set [3], 54; in data set [4], 82; in data set [5], 89; in data set [6], 116.

For `O=C(Nc1ccc(Cl)cc1)N1CCN(c2ccc3nncn3n2)CC1`, the “% Cell Death” value in data set [1] came to 108; in data set [2], 22; in data set [3], 83; in data set [4], 87; in data set [5] it was 92; in data set [6], 98.

As to `FC(F)(F)c1cccc(CNC2CCN(CCc3ccccc3)CC2)c1`, the “% Cell Death” value in data set [1] is given as -16; in data set [2], 31; in data set [3] it was 30; in data set [4] it was -15; in data set [5], -16; in data set [6] it was 24.

As to `O=C(Nc1ccccc1O)c1ccc(-c2ccc(Cl)cc2Cl)o1`, the “% Cell Death” value in data set [1] was -37; in data set [2] it was -23; in data set [3], 34; in data set [4] it was 66; in data set [5] it was 11; in data set [6], 64.

In the case of `Cc1cc(C=C2SC(=Nc3ccccc3)N(C3CCCC3)C2=O)c(C)n1-c1ccc(Cl)cc1`, the “% Cell Death” value worked out at 96 in data set [1]; 65 in data set [2]; 8 in data set [3]; 36 in data set [4]; 140 in data set [5]; 90 in data set [6].

Regarding `COc1cccc(C(=O)NC(c2ccc(C)cc2)c2cc(Cl)c3cccnc3c2O)c1` (stereo not given), the “% Cell Death” value in data set [1] is reported as 88; in data set [2] it was 68; in data set [3], 23; in data set [4], -4; in data set [5], 26; in data set [6] it was -24.

In the case of `CCn1nc(-c2ccc(C(=O)OC)cc2)nc2c(=O)n(C)c(=O)nc1-2`, the “% Cell Death” value is on record as 1 in data set [1]; 21 in data set [2]; 6 in data set [3]; -23 in data set [4]; -2 in data set [5]; 18 in data set [6].

Regarding `O=c1c2c([nH]c3ccccc13)CCCC2`, the “% Cell Death” value is 9 in data set [1]; 33 in data set [2]; 7 in data set [3]; -18 in data set [4]; -11 in data set [5]; -44 in data set [6].

Take `Clc1ccc2[nH]c3c(NCCCN4CCOCC4)ncnc3c2c1`: the “% Cell Death” value came out at 110 in data set [1]; 100 in data set [2]; 105 in data set [3]; 91 in data set [4]; 141 in data set [5]; 118 in data set [6].

Take `CCCN(CCC)CC(O)COc1ccccc1C(=O)Nc1ccccc1` (stereo not given): the “% Cell Death” value is recorded as 33 in data set [1]; 22 in data set [2]; -14 in data set [3]; 14 in data set [4]; 34 in data set [5]; -27 in data set [6].

For `Cl.c1ccc2c(NCCCCCCNc3c4c(nc5ccccc35)CCCC4)c3c(nc2c1)CCCC3`, the “% Cell Death” value is 12 in data set [1]; 32 in data set [2]; -1 in data set [3]; -18 in data set [4]; 34 in data set [5]; 9 in data set [6].

Turning to `Cc1nc2ccccc2c(O)c1CC=C(Cl)Cl`, the “% Cell Death” value is 19 in data set [1]; 30 in data set [2]; -2 in data set [3]; 20 in data set [4]; 26 in data set [5]; -3 in data set [6].

For the molecule `CCOC(=O)c1cnc2c(C)cccc2c1Nc1ccc(C(C)=O)cc1`, the “% Cell Death” value is given as 70 in data set [1]; 76 in data set [2]; 49 in data set [3]; 78 in data set [4]; 69 in data set [5]; 80 in data set [6].

Regarding `OCCNc1nc(Nc2ccc(Cl)c(Cl)c2)nc2ccccc12`, the “% Cell Death” value in data set [1] is reported as 41; in data set [2], 30; in data set [3], -18; in data set [4], -3; in data set [5], 51; in data set [6] it was -59.

Regarding `c1ccc(Cn2c(N=Nc3c(Nc4ccccc4)ccc4ccccc34)nc3ccccc32)cc1`, the “% Cell Death” value in data set [1] stood at 92; in data set [2], 97; in data set [3], 95; in data set [4], 99; in data set [5], 83; in data set [6] it was 101.

For `Oc1ccccc1CN1CCC2(CCCN(Cc3ccccc3F)C2)C1` (stereo not given), the “% Cell Death” value was -2 in data set [1]; 15 in data set [2]; 36 in data set [3]; 1 in data set [4]; 44 in data set [5]; 39 in data set [6].

Turning to `CC(C)OCc1cc(CN2CCN(c3cccc(Cl)c3)CC2)c(O)c2ncccc12`, the “% Cell Death” value in data set [1] was 14; in data set [2], 19; in data set [3], 19; in data set [4] it was -12; in data set [5], 125; in data set [6] it was 32.

As for `COc1ccc(-c2c(C)nn3c(N)c(C#N)cnc23)cc1OC`, the “% Cell Death” value in data set [1] came to 83; in data set [2] it was 98; in data set [3] it was 93; in data set [4] it was 89; in data set [5] it was 124; in data set [6], 93.

Regarding `CCN(CC)c1ccc(NC(=O)c2cccs2)cc1`, the “% Cell Death” value was determined as 94 in data set [1]; 56 in data set [2]; 18 in data set [3]; 43 in data set [4]; 106 in data set [5]; 102 in data set [6].

As for `Cc1ccc(Nc2nc(NCCO)c3ccccc3n2)cc1C`, the “% Cell Death” value in data set [1] is on record as -23; in data set [2] it was 28; in data set [3], 3; in data set [4], -22; in data set [5], 36; in data set [6] it was 12.

As for `COc1ccc(-c2cc(=O)oc3c4c(ccc23)OCN(Cc2ccc(F)cc2)C4)cc1`, the “% Cell Death” value in data set [1] is recorded as 20; in data set [2], 21; in data set [3], 16; in data set [4], -9; in data set [5] it was 29; in data set [6] it was -26.

In the case of `O=C(Nc1ccc(-c2nc3cc(NC(=O)c4ccc(Cl)cc4)ccc3[nH]2)cc1)c1ccc(Cl)cc1`, the “% Cell Death” value in data set [1] is reported as -28; in data set [2], 37; in data set [3] it was -14; in data set [4], -23; in data set [5], -18; in data set [6], -10.
